Here are results for five compounds from ChEMBL document CHEMBL1134865, “Antimalarial compounds from Parinari capensis” (Bioorg Med Chem Lett, 2002).

The nature of data set [1]: Compound was evaluated for its antimalarial activity in vitro on Plasmodium falciparum. Type of data set: functional.
Data set [2] is described as follows: Compound was evaluated for toxicity on Human kidney epithelial (Graham cells) at a dose of 100 ug/mL. Type of data set: cell-based.
Data set [3] is described as follows: Compound was evaluated for toxicity on Human kidney epithelial (Graham cells) at a dose of 100 ug/mL; Not toxic. It is filed as cell-based.

Structures are written as SMILES. Converted amounts (≈) assume the structure as drawn.

On to `C=C1C(=O)[C@@]23CC[C@@H]4[C@@]5(C)CCC[C@@]4(OC5=O)[C@@]2(C)CC[C@]1(OC)C3`, for which the IC50 in data set [1] was 0.67 µg/mL (≈ 1.95 µM); in data set [2], 1.13 µg/mL (≈ 3.28 µM).

For `C=C1C(=O)[C@@]23CCC4[C@@]5(C)CCC[C@@]4(OC5=O)[C@@]2(C)CC[C@]1(O)C3` (stereo not given in full), the values for the IC50 in data set [1] and in data set [2] were 0.54 µg/mL (≈ 1.63 µM) and 1.73 µg/mL (≈ 5.24 µM), respectively.

For `C=C1C(=O)[C@@]23CCC4[C@@]5(C)CCC[C@@]4(OC5=O)[C@@]2(C)CC[C@@H]1C3` (stereo not given in full), the figures for the IC50 in data set [1] and in data set [2] were 1.57 µg/mL (≈ 4.99 µM) and 3.01 µg/mL (≈ 9.57 µM), respectively.

For the compound `C=C[C@H]1CN2CC[C@H]1C[C@H]2[C@H](O)c1ccnc2ccc(OC)cc12` [QUININE], the IC50 is 0.17 µg/mL (≈ 0.524 µM) in data set [1] and “Non-toxic” in data set [3].

Turning to `CCN(CC)CCCC(C)Nc1ccnc2cc(Cl)ccc12` (stereo not given) [CHLOROQUINE], the IC50 in data set [1] was 0.04 µg/mL (≈ 0.125 µM); in data set [3] it was “Non-toxic”.

A word on the IC50: it is the concentration needed to halve the response being measured. Read a low IC50 as inhibition by little substance.
